Test results: article PMC6211260 (Journal of Enzyme Inhibition and Medicinal Chemistry, 2018)

What was measured:
Type in all cases: cell-based
[1] = system: SK-MEL-5 melanoma cell line; assay: NCI-60 single-dose screening; settings: 10 µM
Method: (§1) Screening against the cancer cell lines was carried out at the National Cancer Institute (NCI, Bethesda, Maryland, USA) applying the standard protocol of the NCI[22].
(§2) The final target compounds were submitted to the National Cancer Institute (NCI), Maryland, USA[23]. Thirty-one compounds were selected to be tested over 60 cell lines at single dose 10 µM.

[2] = system: HT29 colon cancer cell line; assay: NCI-60 single-dose screening; settings: 10 µM
Method: as §1, §2

[3] = system: Colo 205 colon cancer cell line; assay: NCI-60 single-dose screening; settings: 10 µM
Method: as §1, §2

[4] = system: SK-MEL-5 melanoma cell line; assay: NCI five-dose testing; settings: Homo sapiens
Method: as §1

[5] = system: A498 renal cancer cell line; assay: NCI five-dose testing; settings: Homo sapiens
Method: as §1

[6] = system: PC-3 prostate cancer cell line; assay: NCI five-dose testing; settings: Homo sapiens
Method: as §1

[7] = system: OVCAR-4 ovarian cancer cell line; assay: NCI five-dose testing; settings: Homo sapiens
Method: as §1

[8] = system: MDA-MB-468 breast cancer cell line; assay: NCI five-dose testing; settings: Homo sapiens
Method: as §1

[9] = system: U251 CNS cancer cell line; assay: NCI five-dose testing; settings: Homo sapiens
Method: as §1

[10] = system: HT-29 colon cancer cell line; assay: NCI five-dose testing; settings: Homo sapiens
Method: as §1

[11] = system: K-562 leukaemia cell line; assay: NCI five-dose testing; settings: Homo sapiens
Method: as §1

[12] = system: HOP-92 non-small cell lung cancer cell line; assay: NCI five-dose testing; settings: Homo sapiens
Method: as §1

NCI-60 cell line panel = assay: NCI-60 single-dose (10 µM) antiproliferative screening, mean over panel; settings: single-dose 10 µM
Method: as §1, §2

renal cancer cell lines = assay: NCI five-dose testing, subpanel mean; settings: subpanel VII: renal cancer
Method: as §1

melanoma cell lines = assay: NCI five-dose testing, subpanel mean; settings: subpanel V: melanoma
Method: as §1

breast cancer cell lines = assay: NCI five-dose testing, subpanel mean; settings: subpanel IX: breast cancer
Method: as §1

[13] = system: non-small cell lung cancer cell lines; assay: NCI five-dose testing, subpanel mean; settings: subpanel II: non-small cell lung cancer
Method: as §1

Leukaemia cell lines = assay: NCI five-dose testing, subpanel mean; settings: subpanel I: Leukaemia
Method: as §1

colon cancer cell lines = assay: NCI five-dose testing, subpanel mean; settings: subpanel III: colon cancer
Method: as §1

CNS cancer cell lines = assay: NCI five-dose testing, subpanel mean; settings: subpanel IV: CNS cancer
Method: as §1

[14] = system: prostate cancer cell lines; assay: NCI five-dose testing, subpanel mean; settings: subpanel VIII: prostate cancer
Method: as §1

[15] = system: ovarian cancer cell lines; assay: NCI five-dose testing, subpanel mean; settings: subpanel VI: ovarian cancer
Method: as §1

T-47D cell line = assay: NCI-60 single-dose screening; settings: 10 µM
Method: as §1, §2

COc1cccc(-c2nn(-c3ccccc3)cc2-c2ccnc(NCCCNS(=O)(=O)c3ccc(C(F)(F)F)cc3)c2)c1 [Compound 2g, N-(3-((4-(3-(3-Methoxyphenyl)-1-phenyl-1H-pyrazol-4-yl)pyridin-2-yl)amino)propyl)-4-(trifluoromethyl)benzenesulfonamide]
per cent inhibition [1]: lethal effect | per cent inhibition [2]: lethal effect | per cent inhibition [3]: lethal effect | IC50 ([4]; SK-MEL-5): 2.18 µM | LC50 (lethal concentration 50) ([4]; SK-MEL-5, read-out: LD50 (lethal dose 50)): 23.1 µM | IC (TGI) ([4]; SK-MEL-5, read-out: TGI (total growth inhibition concentration)): 5 µM | IC50 ([5]; A498): 3.8 µM | LC50 (lethal concentration 50%) ([5]; A498, read-out: LD50 (lethal dose 50)): > 100 µM | IC (TGI) ([5]; A498, read-out: TGI (total growth inhibition concentration)): > 100 µM | LC50 (lethal concentration 50) ([6]; PC-3, read-out: LD50 (lethal dose 50)): > 100 µM | IC50 ([6]; PC-3, read-out: IC50): 3.36 µM | IC (TGI) ([6]; PC-3, read-out: TGI (total growth inhibition concentration)): > 100 µM | IC50 ([7]; OVCAR-4): 4.36 µM | LC50 (lethal concentration 50) ([7]; OVCAR-4, read-out: LD50 (lethal dose 50)): > 100 µM | IC (TGI) ([7]; OVCAR-4, read-out: TGI (total growth inhibition concentration)): > 100 µM | IC50 ([8]; MDA-MB-468): 3.11 µM | CC50 ([8]; MDA-MB-468, read-out: LD50 (lethal dose 50)): > 100 µM | IC (TGI) ([8]; MDA-MB-468, read-out: TGI (total growth inhibition concentration)): > 100 µM | CC50 ([9]; U-251, read-out: LD50 (lethal dose 50)): > 100 µM | IC50 ([9]; U-251, U251, read-out: IC50): 5.63 µM | IC (TGI) ([9]; U-251, U251, read-out: TGI (total growth inhibition concentration)): > 100 µM | CC50 ([10]; HT-29, read-out: LD50 (lethal dose 50)): > 100 µM | IC50 ([10]; HT-29, read-out: IC50): 3.21 µM | IC (TGI) ([10]; HT-29, read-out: TGI (total growth inhibition concentration)): 10 µM | CC50 ([11]; K562, read-out: LD50 (lethal dose 50)): > 100 µM | IC50 ([11]; K562, K-562): 3.06 µM | IC (TGI) ([11]; K562, K-562, read-out: TGI (total growth inhibition concentration)): > 100 µM | IC50 ([12]; HOP-92): 3.68 µM | IC (TGI) ([12]; HOP-92, HOP-92, read-out: TGI (total growth inhibition concentration)): > 100 µM | LD50 (lethal dose 50) ([12]; HOP-92, read-out: LD50 (lethal dose 50)): > 100 µM | inhibition at 10 µM (NCI-60 cell line panel; 60-cancer cell line screening): 76.5% | number of cell lines with more than 100% inhibition (NCI-60 cell line panel; NCI-60 panel): 13 | IC50 (renal cancer cell lines): 5.32 µM | IC50 (melanoma cell lines): 4.94 µM | IC50 (breast cancer cell lines): 4.05 µM | IC50 [13]: 6.36 µM | IC50 (Leukaemia cell lines): 3.35 µM | IC50 (colon cancer cell lines): 4.91 µM | IC50 (CNS cancer cell lines): 5.28 µM | IC50 [14]: 13 µM | IC50 [15]: 6.1 µM

COc1cccc(-c2nn(-c3ccccc3)cc2-c2ccnc(NCCCNS(=O)(=O)c3ccc(Br)cc3)c2)c1 [Compound 2b, 4-Bromo-N-(3-((4-(3-(3-methoxyphenyl)-1-phenyl-1H-pyrazol-4-yl)pyridin-2-yl)amino)propyl) benzenesulfonamide]
per cent inhibition (T-47D cell line): 83.30%
